Measured values published in publication PMC5218480 (PLoS ONE, 2017).

Tested on: MV-4-11 cells
Assay: Gene expression microarray analysis (Affymetrix PrimeView) and GSEA
Type: cell-based, human
Design: RFU PODN (11730768_x_at) / Fold change /veh PODN (11730768_x_at) / RFU LINC00158 (11744669_a_at) / Fold change /veh LINC00158 (11744669_a_at) / RFU DUSP10 (11751237_a_at) / Fold change /veh DUSP10 (11751237_a_at) / RFU ID3 (11757404_x_at) / Fold change /veh ID3 (11757404_x_at) / RFU PLEKHG5 (11737974_s_at) / Fold change /veh PLEKHG5 (11737974_s_at) / RFU LRRC4B (11730491_at) / Fold change /veh LRRC4B (11730491_at) / RFU GIMAP4 (11747438_a_at) / Fold change /veh GIMAP4 (11747438_a_at) / RFU KRT8 (11758183_x_at) / Fold change /veh KRT8 (11758183_x_at) / RFU CNN1 (11734310_a_at) / Fold change /veh CNN1 (11734310_a_at) / RFU VPS37D (11726825_at) / Fold change /veh VPS37D (11726825_at) / RFU C10orf10 (11716522_x_at) / Fold change /veh C10orf10 (11716522_x_at) / RFU KIR2DL2 /// KIR2DL4 /// KIR2DL5A /// KIR2DL5B /// KIR2DS1 /// KIR2DS2 /// KIR2DS3 /// KIR2DS4 /// KIR3DL3 /// KIR3DL3 /// KIR3DS1 (11738374_at) / Fold change /veh KIR2DL2 /// KIR2DL4 /// KIR2DL5A /// KIR2DL5B /// KIR2DS1 /// KIR2DS2 /// KIR2DS3 /// KIR2DS4 /// KIR3DL3 /// KIR3DL3 /// KIR3DS1 (11738374_at) / RFU C1QL1 (11718748_at) / Fold change /veh C1QL1 (11718748_at) / RFU TMPRSS4 (11747572_a_at) / Fold change /veh TMPRSS4 (11747572_a_at) / RFU HAMP (11756126_x_at) / Fold change /veh HAMP (11756126_x_at) / RFU RNFT2 (11725882_a_at) / Fold change /veh RNFT2 (11725882_a_at) / RFU NR4A2 (11747474_a_at) / Fold change /veh NR4A2 (11747474_a_at) / RFU ABCC12 (11746883_a_at) / Fold change /veh ABCC12 (11746883_a_at) / RFU TMEM136 (11760407_x_at) / Fold change /veh TMEM136 (11760407_x_at) / RFU CLDN22 /// WWC2 (11732394_at) / Fold change /veh CLDN22 /// WWC2 (11732394_at) / RFU HLA-DPB1 (11760878_x_at) / Fold change /veh HLA-DPB1 (11760878_x_at) / RFU SPINT1 (11716480_a_at) / Fold change /veh SPINT1 (11716480_a_at) / RFU GAP43 (11754022_s_at) / Fold change /veh GAP43 (11754022_s_at) / RFU A4GNT (11735810_at) / Fold change /veh A4GNT (11735810_at) / RFU PRB3 (11715151_x_at) / Fold change /veh PRB3 (11715151_x_at) / RFU TUBB4B (11761932_at) / Fold change /veh TUBB4B (11761932_at) / RFU CAPN14 (11732068_a_at) / Fold change /veh CAPN14 (11732068_a_at) / RFU TMCC2 (11721928_a_at) / Fold change /veh TMCC2 (11721928_a_at) / RFU IRGQ (11745062_a_at) / Fold change /veh IRGQ (11745062_a_at) / RFU FAM174B (11720279_a_at) / Fold change /veh FAM174B (11720279_a_at) / RFU TMPRSS4 (11748680_a_at) / Fold change /veh TMPRSS4 (11748680_a_at) / RFU FAM212B (11763350_a_at) / Fold change /veh FAM212B (11763350_a_at) / RFU PLEKHG5 (11743358_a_at) / Fold change /veh PLEKHG5 (11743358_a_at) / RFU ZSCAN30 (11745921_a_at) / Fold change /veh ZSCAN30 (11745921_a_at) / RFU CMKLR1 (11741424_a_at) / Fold change /veh CMKLR1 (11741424_a_at) / RFU LOC101060620 /// MAPK8IP1 (11723275_at) / Fold change /veh LOC101060620 /// MAPK8IP1 (11723275_at) / RFU SPTSSB (11747773_x_at) / Fold change /veh SPTSSB (11747773_x_at) / RFU PRSS12 (11739890_at) / Fold change /veh PRSS12 (11739890_at) / RFU BIN1 (11741810_x_at) / Fold change /veh BIN1 (11741810_x_at) / RFU WNT11 (11732464_a_at) / Fold change /veh WNT11 (11732464_a_at) / RFU C10orf10 (11716521_a_at) / Fold change /veh C10orf10 (11716521_a_at) / RFU C5orf56 (11738089_at) / Fold change /veh C5orf56 (11738089_at) / RFU CYB561 (11721691_x_at) / Fold change /veh CYB561 (11721691_x_at) / RFU ANKRD19P (11752326_a_at) / Fold change /veh ANKRD19P (11752326_a_at) / RFU OR2T12 /// OR2T33 /// OR2T8 (11738714_s_at) / Fold change /veh OR2T12 /// OR2T33 /// OR2T8 (11738714_s_at) / RFU VCAN (11748164_a_at) / Fold change /veh VCAN (11748164_a_at) / RFU JSRP1 (11732532_at) / Fold change /veh JSRP1 (11732532_at) / RFU KRTAP10-11 (11738290_x_at) / Fold change /veh KRTAP10-11 (11738290_x_at) / RFU MYO3A (11730013_a_at) / Fold change /veh MYO3A (11730013_a_at) / RFU EBF3 (11725865_a_at) / Fold change /veh EBF3 (11725865_a_at) / RFU CAMK2N1 (11719241_x_at) / Fold change /veh CAMK2N1 (11719241_x_at) / RFU C5orf56 (11738088_a_at) / Fold change /veh C5orf56 (11738088_a_at) / RFU OLFML3 (11715873_a_at) / Fold change /veh OLFML3 (11715873_a_at) / RFU LOC100653217 /// NTM (11731650_a_at) / Fold change /veh LOC100653217 /// NTM (11731650_a_at) / RFU MAPK11 (11762145_a_at) / Fold change /veh MAPK11 (11762145_a_at) / RFU FIZ1 (11724087_x_at) / Fold change /veh FIZ1 (11724087_x_at) / RFU OASL (11726364_x_at) / Fold change /veh OASL (11726364_x_at) / RFU SOX15 (11748057_x_at) / Fold change /veh SOX15 (11748057_x_at) / RFU CD79A (11719716_a_at) / Fold change /veh CD79A (11719716_a_at) / RFU HIST1H1D (11736915_at) / Fold change /veh HIST1H1D (11736915_at) / RFU CASKIN2 (11723855_a_at) / Fold change /veh CASKIN2 (11723855_a_at) / RFU LOC730098 (11760151_x_at) / Fold change /veh LOC730098 (11760151_x_at) / RFU OR4N2 (11742367_at) / Fold change /veh OR4N2 (11742367_at) / RFU PRRT2 (11749266_a_at) / Fold change /veh PRRT2 (11749266_a_at) / RFU SNX32 (11753110_a_at) / Fold change /veh SNX32 (11753110_a_at) / RFU CDHR5 (11726645_a_at) / Fold change /veh CDHR5 (11726645_a_at) / RFU RCAN1 (11760418_a_at) / Fold change /veh RCAN1 (11760418_a_at) / RFU FAM167A (11723789_a_at) / Fold change /veh FAM167A (11723789_a_at) / RFU FAM26E (11764081_at) / Fold change /veh FAM26E (11764081_at) / RFU ISYNA1 (11749810_s_at) / Fold change /veh ISYNA1 (11749810_s_at) / RFU ACY1 (11761880_at) / Fold change /veh ACY1 (11761880_at) / RFU 11764098_at / Fold change /veh 11764098_at / RFU SAMD14 (11745864_x_at) / Fold change /veh SAMD14 (11745864_x_at) / RFU NPB (11741838_a_at) / Fold change /veh NPB (11741838_a_at) / RFU TMPRSS6 (11731388_a_at) / Fold change /veh TMPRSS6 (11731388_a_at) / RFU KRTAP10-2 (11738614_at) / Fold change /veh KRTAP10-2 (11738614_at) / RFU ARHGAP8 /// PRR5-ARHGAP8 (11727945_x_at) / Fold change /veh ARHGAP8 /// PRR5-ARHGAP8 (11727945_x_at) / RFU KRTAP5-7 /// NADSYN1 (11734609_at) / Fold change /veh KRTAP5-7 /// NADSYN1 (11734609_at) / RFU RASL12 (11751679_a_at) / Fold change /veh RASL12 (11751679_a_at) / RFU CDKN2B (11736163_a_at) / Fold change /veh CDKN2B (11736163_a_at) / RFU PRF1 (11729649_at) / Fold change /veh PRF1 (11729649_at) / RFU, ZNF638 /// ZNF638-IT1 / Fold change vs veh, ZNF638 /// ZNF638-IT1 / RFU, PANK3 / Fold change vs veh, PANK3 / RFU, SH3YL1 / Fold change vs veh, SH3YL1 / RFU, ZEB2 / Fold change vs veh, ZEB2 / RFU, NRIP1 / Fold change vs veh, NRIP1 / RFU, PTTG1IP / Fold change vs veh, PTTG1IP / RFU, CAPN2 / Fold change vs veh, CAPN2 / RFU, MED14 / Fold change vs veh, MED14 / RFU, SNORA58 / Fold change vs veh, SNORA58 / RFU, C1orf63 / Fold change vs veh, C1orf63 / RFU, LRRFIP1 / Fold change vs veh, LRRFIP1 / RFU, NDUFAF7 / Fold change vs veh, NDUFAF7 / RFU, SLC12A2 / Fold change vs veh, SLC12A2 / RFU, IBTK / Fold change vs veh, IBTK / RFU, ESF1 / Fold change vs veh, ESF1 / Fold change vs veh, TMEM50B / RFU, TAOK1 / Fold change vs veh, TAOK1 / RFU, ACBD3 / Fold change vs veh, ACBD3 / RFU, TMA16 / Fold change vs veh, TMA16 / RFU, RWDD3 / Fold change vs veh, RWDD3 / RFU, BCAT1 / Fold change vs veh, BCAT1 / RFU, EDEM3 / Fold change vs veh, EDEM3 / RFU, TMEM33 / Fold change vs veh, TMEM33 / RFU, WDR75 / Fold change vs veh, WDR75 / RFU, AHCTF1 / Fold change vs veh, AHCTF1 / RFU, TFRC / Fold change vs veh, TFRC / RFU, ZDHHC17 / Fold change vs veh, ZDHHC17 / RFU, NOM1 / Fold change vs veh, NOM1 / RFU, ARL8B / Fold change vs veh, ARL8B / RFU, ZBTB11 / Fold change vs veh, ZBTB11 / RFU, TAMM41 / Fold change vs veh, TAMM41 / RFU, KIAA1704 /// LOC100996395 / Fold change vs veh, KIAA1704 /// LOC100996395 / RFU, ING1 / Fold change vs veh, ING1 / RFU, TRMT61B / Fold change vs veh, TRMT61B / RFU, FUBP3 / Fold change vs veh, FUBP3 / RFU, TP53 / Fold change vs veh, TP53 / RFU, TNKS2 / Fold change vs veh, TNKS2 / RFU, ZFP14 / Fold change vs veh, ZFP14 / RFU, ACTR2 / Fold change vs veh, ACTR2 / RFU, PPP3R1 / Fold change vs veh, PPP3R1 / RFU, PIK3R1 / Fold change vs veh, PIK3R1 / RFU, HNRNPA1 / Fold change vs veh, HNRNPA1 / RFU, RNF170 / Fold change vs veh, RNF170 / RFU, ZNF28 / Fold change vs veh, ZNF28 / RFU, RNGTT / Fold change vs veh, RNGTT / RFU, OGT / Fold change vs veh, OGT / RFU, BRD1 / Fold change vs veh, BRD1 / RFU, MARS / Fold change vs veh, MARS / RFU, ZNF655 / Fold change vs veh, ZNF655 / RFU, FAHD1 / Fold change vs veh, FAHD1 / RFU, BDP1 / Fold change vs veh, BDP1 / RFU, LRRCC1 / Fold change vs veh, LRRCC1 / RFU, ARID1A / Fold change vs veh, ARID1A / RFU, ZNF146 / Fold change vs veh, ZNF146 / RFU, ZNF330 / Fold change vs veh, ZNF330 / RFU, GPN3 / Fold change vs veh, GPN3 / RFU, C9orf123 / Fold change vs veh, C9orf123 / RFU, N4BP2L2 / Fold change vs veh, N4BP2L2 / RFU, ARFIP1 / Fold change vs veh, ARFIP1 / RFU, FAM179B / Fold change vs veh, FAM179B / RFU, BCL10 / Fold change vs veh, BCL10 / RFU, UHRF1BP1L / Fold change vs veh, UHRF1BP1L / RFU, BET1 / Fold change vs veh, BET1 / RFU, CNOT2 / Fold change vs veh, CNOT2 / RFU, ZNF268 / Fold change vs veh, ZNF268 / Fold change vs veh, ZNF507 / RFU, DGCR2 / Fold change vs veh, DGCR2 / RFU, WDSUB1 / Fold change vs veh, WDSUB1 / Fold change vs veh, HSP90B1 /// MIR3652 / RFU, ADSS / Fold change vs veh, ADSS / RFU, GK / Fold change vs veh, GK / RFU, ZNF148 / Fold change vs veh, ZNF148 / RFU, TAF9 / Fold change vs veh, TAF9 / RFU, SLC1A5 / Fold change vs veh, SLC1A5 / RFU, SLMO2 / Fold change vs veh, SLMO2 / RFU, ABCC4 / Fold change vs veh, ABCC4 / RFU, LOC101060439 /// RAP1B / Fold change vs veh, LOC101060439 /// RAP1B / RFU, RFX7 / Fold change vs veh, RFX7 / RFU, GTPBP10 / Fold change vs veh, GTPBP10 / RFU, CNEP1R1 / Fold change vs veh, CNEP1R1 / RFU, BIVM-ERCC5 /// ERCC5 / Fold change vs veh, BIVM-ERCC5 /// ERCC5 / RFU, ILF3 / Fold change vs veh, ILF3 / RFU 11762660_at / Fold change /veh 11762660_at / RFU VCAN (11757783_s_at) / Fold change /veh VCAN (11757783_s_at) / RFU DDX43 (11728927_at) / Fold change /veh DDX43 (11728927_at) / RFU KRT8 (11758188_x_at) / Fold change /veh KRT8 (11758188_x_at) / RFU NKD1 (11759106_at) / Fold change /veh NKD1 (11759106_at) / RFU SRD5A1 (11742802_a_at) / Fold change /veh SRD5A1 (11742802_a_at) / RFU TPSAB1 /// TPSB2 (11721975_s_at) / Fold change /veh TPSAB1 /// TPSB2 (11721975_s_at) / RFU GSTM3 (11746129_a_at) / Fold change /veh GSTM3 (11746129_a_at) / RFU IL23R (11737362_x_at) / Fold change /veh IL23R (11737362_x_at) / RFU TMEM51 (11727254_a_at) / Fold change /veh TMEM51 (11727254_a_at) / RFU PIWIL2 (11732686_x_at) / Fold change /veh PIWIL2 (11732686_x_at) / RFU ORM1 (11744905_x_at) / Fold change /veh ORM1 (11744905_x_at) / RFU CCDC152 (11743942_at) / Fold change /veh CCDC152 (11743942_at) / RFU ECM1 (11717891_a_at) / Fold change /veh ECM1 (11717891_a_at) / RFU IL23R (11748794_a_at) / Fold change /veh IL23R (11748794_a_at) / RFU TNFAIP8L3 (11732012_x_at) / Fold change /veh TNFAIP8L3 (11732012_x_at) / RFU MBOAT4 (11741988_at) / Fold change /veh MBOAT4 (11741988_at) / RFU 11764193_at / Fold change /veh 11764193_at / RFU TMEM53 (11763286_at) / Fold change /veh TMEM53 (11763286_at) / RFU MAGEB2 (11727129_at) / Fold change /veh MAGEB2 (11727129_at) / RFU TMEM200A (11744735_a_at) / Fold change /veh TMEM200A (11744735_a_at) / RFU CCDC152 (11751479_a_at) / Fold change /veh CCDC152 (11751479_a_at) / RFU FAM211A (11726209_a_at) / Fold change /veh FAM211A (11726209_a_at) / RFU RGS16 (11746705_a_at) / Fold change /veh RGS16 (11746705_a_at) / RFU VCAN (11755009_s_at) / Fold change /veh VCAN (11755009_s_at) / RFU RHOB (11743442_s_at) / Fold change /veh RHOB (11743442_s_at) / RFU RGS16 (11720943_a_at) / Fold change /veh RGS16 (11720943_a_at) / RFU RGS16 (11720944_at) / Fold change /veh RGS16 (11720944_at) / RFU, VPS4B / Fold change vs veh, VPS4B / RFU, CREB1 / Fold change vs veh, CREB1 / RFU, DNAJC13 / Fold change vs veh, DNAJC13 / RFU, GNAQ / Fold change vs veh, GNAQ / RFU, CDK5R1 / Fold change vs veh, CDK5R1 / RFU, ZRANB3 / Fold change vs veh, ZRANB3 / RFU, CUL4A / Fold change vs veh, CUL4A / RFU, CCNY / Fold change vs veh, CCNY / RFU, UFL1 / Fold change vs veh, UFL1 / RFU, COG3 / Fold change vs veh, COG3 / RFU, DIAPH2 / Fold change vs veh, DIAPH2 / RFU, SKA2 / Fold change vs veh, SKA2 / RFU, AFF3 / Fold change vs veh, AFF3 / RFU, LMF1 / Fold change vs veh, LMF1 / RFU, IPO11 / Fold change vs veh, IPO11 / RFU, DFFB / Fold change vs veh, DFFB / RFU, FOXP1 / Fold change vs veh, FOXP1 / RFU, CARD8 / Fold change vs veh, CARD8 / RFU, STRN3 / Fold change vs veh, STRN3 / RFU, ADK / Fold change vs veh, ADK / RFU, RASSF2 / Fold change vs veh, RASSF2 / RFU, WIPF1 / Fold change vs veh, WIPF1 / RFU, LARP1B / Fold change vs veh, LARP1B / RFU, RASA1 / Fold change vs veh, RASA1 / RFU, RB1 / Fold change vs veh, RB1 / RFU, PPFIA1 / Fold change vs veh, PPFIA1 / RFU, MAT2A / Fold change vs veh, MAT2A / RFU, CCT5 / Fold change vs veh, CCT5 / RFU, WDR92 / Fold change vs veh, WDR92 / RFU, CUX1 / Fold change vs veh, CUX1 / RFU, TTC7A / Fold change vs veh, TTC7A / RFU, TMEM135 / Fold change vs veh, TMEM135 / RFU, DEPTOR / Fold change vs veh, DEPTOR / RFU, CPM / Fold change vs veh, CPM / RFU, DNAJB6 / Fold change vs veh, DNAJB6 / RFU, CACNA2D3 / Fold change vs veh, CACNA2D3 / RFU, DTX4 / Fold change vs veh, DTX4 / RFU, TFCP2 / Fold change vs veh, TFCP2 / RFU, GMCL1 /// GMCL1P1 / Fold change vs veh, GMCL1 /// GMCL1P1 / RFU, AEBP2 / Fold change vs veh, AEBP2 / RFU, SNHG1 /// SNORD22 /// SNORD25 /// SNORD26 /// SNORD27 /// SNORD28 /// SNORD29 /// SNORD31 / Fold change vs veh, SNHG1 /// SNORD22 /// SNORD25 /// SNORD26 /// SNORD27 /// SNORD28 /// SNORD29 /// SNORD31 / Fold change (Aza/veh), C12orf56 (ProbeSet 11735607_a_at) / Fold change (ACY-1035/veh), C12orf56 (ProbeSet 11735607_a_at) / Fold change (Aza/veh), FGFR1OP (ProbeSet 11751329_s_at) / Fold change (ACY-1035/veh), FGFR1OP (ProbeSet 11751329_s_at) / Fold change (Aza/veh), VPS36 (ProbeSet 11739960_a_at) / Fold change (ACY-1035/veh), VPS36 (ProbeSet 11739960_a_at) / RFU SYPL1 (11715823_x_at) / Fold change /veh SYPL1 (11715823_x_at) / RFU IGFBP7 (11715501_s_at) / Fold change /veh IGFBP7 (11715501_s_at) / RFU REEP3 (11722064_at) / Fold change /veh REEP3 (11722064_at) / RFU IGLL1 (11728026_x_at) / Fold change /veh IGLL1 (11728026_x_at): dose or concentration left out as unconfirmed
Conditions: ProbeSet 11731583_a_at; LIST D

Nc1ncn([C@@H]2O[C@H](CO)[C@@H](O)[C@H]2O)c(=O)n1 [azacitidine] was tested, and the “RFU, LARP1B” value was 75.03 RFU.
